The target of one test is human orexin-2 receptor (Homo sapiens (Human), UniProt O43614). Description: Intracellular calcium measurement (FLIPR), CHO cells expressing human orexin-2 receptor, 3 nM orexin-A. Format: cell-based. The settings on record: CHO cells expressing human orexin-2 receptor, FLIPR, 3 nM orexin-A; geometric mean if determined several times; read-out: IC50 OX2. A digest of the protocol: (§1)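 CHO cells stably expressing each receptor were loaded with 3 μM fluo-4 AM plus 5 mM probenecid for 50 min at 37 °C, then equilibrated 30 min at rt.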
For orientation: Calcium flux is commonly read through the fluorescence of an indicator in the cells.

A further test addresses orexin-1 (Homo sapiens (Human), UniProt O43613). Description: Intracellular calcium measurement (FLIPR), CHO cells expressing human orexin-1 receptor, 3 nM orexin-A. In kind it is cell-based. The settings on record: read-out: IC50 OX1. A digest of the protocol: as §1
Where [1] appears, read: CHO cells expressing human orexin-1 receptor, FLIPR, 3 nM orexin-A, geometric mean if determined several times.

Read-outs that look alike come from different tables or passages of the source.

As usually defined, the IC50 is the concentration at which inhibition is half-maximal.

Chain of human orexin-2 receptor (O43614 whole entry): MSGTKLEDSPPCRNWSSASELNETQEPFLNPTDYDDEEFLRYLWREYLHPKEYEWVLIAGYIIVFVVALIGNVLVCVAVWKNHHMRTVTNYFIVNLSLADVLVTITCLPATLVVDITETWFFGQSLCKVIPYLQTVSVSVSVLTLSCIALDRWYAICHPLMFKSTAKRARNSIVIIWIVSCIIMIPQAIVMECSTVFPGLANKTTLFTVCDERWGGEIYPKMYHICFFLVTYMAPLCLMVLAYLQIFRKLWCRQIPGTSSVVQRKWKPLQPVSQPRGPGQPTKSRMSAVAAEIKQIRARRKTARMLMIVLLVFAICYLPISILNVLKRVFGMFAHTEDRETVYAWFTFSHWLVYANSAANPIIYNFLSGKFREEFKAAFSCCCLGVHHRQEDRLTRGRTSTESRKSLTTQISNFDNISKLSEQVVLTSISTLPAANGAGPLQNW
Chain of orexin-1 (O43613 whole entry): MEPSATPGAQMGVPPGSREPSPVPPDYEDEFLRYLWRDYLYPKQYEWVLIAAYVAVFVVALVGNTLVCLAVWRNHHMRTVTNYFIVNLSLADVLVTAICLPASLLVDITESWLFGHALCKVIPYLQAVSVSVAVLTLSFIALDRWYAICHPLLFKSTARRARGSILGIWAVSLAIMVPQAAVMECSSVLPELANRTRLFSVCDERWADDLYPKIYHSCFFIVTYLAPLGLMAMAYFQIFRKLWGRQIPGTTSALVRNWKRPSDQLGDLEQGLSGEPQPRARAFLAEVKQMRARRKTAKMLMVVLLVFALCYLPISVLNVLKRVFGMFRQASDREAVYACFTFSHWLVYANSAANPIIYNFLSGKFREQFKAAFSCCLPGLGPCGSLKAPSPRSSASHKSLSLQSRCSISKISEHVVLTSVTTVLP

As to `COc1ccccc1-c1nnc([C@@H]2CCCN2C(=O)c2ccc(C)cc2-n2nccn2)[nH]1` [compound 471, {(S)-2-[5-(2-Methoxy-phenyl)-4H-[1,2,4]triazol-3-yl]-pyrrolidin-1-yl}-(4-methyl-2-[1,2,3]triazol-2-yl-phenyl)-methanone], the IC50 on human orexin-2 receptor worked out at 0.127 µM; on orexin-1 (setting [1]), 0.049 µM.
On to `COc1cc(C(=O)N2CCC[C@H]2c2nnc(-c3cccc(F)c3OC)[nH]2)c(-n2nccn2)cc1Cl` [compound 472], for which the IC50 at human orexin-2 receptor came out at 0.002 µM; on orexin-1 (setting [1]), 0.019 µM.
Take `COc1cc(C(=O)N2CCC[C@H]2c2nnc(-c3cccc(F)c3OC)[nH]2)c(-n2nccn2)cc1C` [compound 473, {(S)-2-[5-(3-Fluoro-2-methoxy-phenyl)-4H-[1,2,4]triazol-3-yl]-pyrrolidin-1-yl}-(5-methoxy-4-methyl-2-[1,2,3]triazol-2-yl-phenyl)-methanone]: the IC50 at human orexin-2 receptor is 0.006 µM; on orexin-1 (setting [1]) it was 0.057 µM.
`COc1c(F)cccc1-c1nnc([C@@H]2CCCN2C(=O)c2cc(C)c(C)cc2-n2nccn2)[nH]1` [compound 474, (4,5-Dimethyl-2-[1,2,3]triazol-2-yl-phenyl)-{(S)-2-[5-(3-fluoro-2-methoxy-phenyl)-4H-[1,2,4]triazol-3-yl]-pyrrolidin-1-yl}-methanone]: the figures for the IC50 on human orexin-2 receptor and at orexin-1 (setting [1]) were 0.008 µM and 0.016 µM, respectively.
In the case of `COc1c(F)cccc1-c1nnc([C@@H]2CCCN2C(=O)c2cc(Cl)c(C)cc2-n2nccn2)[nH]1` [compound 475], the figures for the IC50 on human orexin-2 receptor and on orexin-1 were 0.002 µM and 0.011 µM, respectively.
Regarding `COc1c(F)cccc1-c1nnc([C@@H]2CCCN2C(=O)c2ccc(Cl)cc2-n2nccn2)[nH]1` [compound 476], the results for the IC50 on human orexin-2 receptor and on orexin-1 (setting [1]) were 0.003 µM and 0.027 µM, respectively.
Consider `COc1c(F)cccc1-c1nnc([C@@H]2CCCN2C(=O)c2ccc(C)cc2-n2nccn2)[nH]1` [compound 477, {(S)-2-[5-(3-Fluoro-2-methoxy-phenyl)-4H-[1,2,4]triazol-3-yl]-pyrrolidin-1-yl}-(4-methyl-2-[1,2,3]triazol-2-yl-phenyl)-methanone], for which the IC50 stood at 0.015 µM at human orexin-2 receptor and 0.055 µM on orexin-1 (setting [1]).
For `CCOc1ncccc1-c1nnc([C@@H]2CCCN2C(=O)c2cc(OC)c(Cl)cc2-n2nccn2)[nH]1` [compound 478], in that order: 0.011 µM and 0.027 µM.
For the molecule `CCOc1ncccc1-c1nnc([C@@H]2CCCN2C(=O)c2cc(OC)c(C)cc2-n2nccn2)[nH]1` [compound 479, {(S)-2-[5-(2-Ethoxy-pyridin-3-yl)-4H-[1,2,4]triazol-3-yl]-pyrrolidin-1-yl}-(5-methoxy-4-methyl-2-[1,2,3]triazol-2-yl-phenyl)-methanone], the IC50 on human orexin-2 receptor was 0.017 µM; on orexin-1 (setting [1]), 0.021 µM.
For `CCOc1ncccc1-c1nnc([C@@H]2CCCN2C(=O)c2cc(C)c(C)cc2-n2nccn2)[nH]1` [compound 480, (4,5-Dimethyl-2-[1,2,3]triazol-2-yl-phenyl)-{(S)-2-[5-(2-ethoxy-pyridin-3-yl)-4H-[1,2,4]triazol-3-yl]-pyrrolidin-1-yl}-methanone], in that order: 0.009 µM and 0.008 µM.
Take `CCOc1ncccc1-c1nnc([C@@H]2CCCN2C(=O)c2ccc(Cl)cc2-n2nccn2)[nH]1` [compound 481]: the IC50 at human orexin-2 receptor stood at 0.021 µM; on orexin-1 (setting [1]), 0.026 µM.
Regarding `CCOc1ncccc1-c1nnc([C@@H]2CCCN2C(=O)c2ccc(C)cc2-n2nccn2)[nH]1` [compound 482, {(S)-2-[5-(2-Ethoxy-pyridin-3-yl)-4H-[1,2,4]triazol-3-yl]-pyrrolidin-1-yl}-(4-methyl-2-[1,2,3]triazol-2-yl-phenyl)-methanone], the IC50 turned out to be 0.094 µM at human orexin-2 receptor and 0.068 µM on orexin-1 (setting [1]).
As for `O=C(c1ncsc1-c1ccccc1)N1CCC[C@H]1c1nnc(-c2ccccc2OC(F)(F)F)[nH]1` [compound 483, (5-Phenyl-thiazol-4-yl)-{(S)-2-[5-(2-trifluoromethoxy-phenyl)-4H-[1,2,4]triazol-3-yl]-pyrrolidin-1-yl}-methanone], the IC50 at human orexin-2 receptor worked out at 1.79 µM; at orexin-1 (setting [1]), 1.62 µM.

(Values after patent US9493446B2, “Orexin receptor antagonists which are [ortho bi-(hetero-)aryl]-[2-(meta bi-(hetero-)aryl)-pyrrolidin-1-yl]-methanone derivatives” (Actelion Pharmaceuticals Ltd, priority 2012, dated 2016).)
